From US20100190807A1, “CDKI Pathway inhibitors and uses thereof to regulate expression to TAU protein” (Senex Biotechnology, Inc., priority 2008, published 2010)

Target: T1, NFκB (p50 and p65 subunits) (Homo sapiens, UniProt P19838+Q04206)
T1 construct: endogenous in cells; control or TNFα-treated
Assay: TransAM NFκB p65 and p50 transcription factor assay (oligonucleotide binding)
Type: cell-based
Text: The left set of bars represents cells treated with carrier control, the middle set represents cells treated with SNX2, and the right set represents cells treated with a known inhibitor of NFκB binding (TPCK).
We also tested if these compounds could act as the inhibitors of NFκB, by measuring cellular levels of p50 or p65 subunits binding oligonucleotides containing NFκB consensus binding site, using ACTIVE MOTIF TransAM™ NFκB p65 Chemi and NFκB p50 Chemi Transcription Factor Assay Kits.

T1 sequence (P19838 1-433 limits assumed): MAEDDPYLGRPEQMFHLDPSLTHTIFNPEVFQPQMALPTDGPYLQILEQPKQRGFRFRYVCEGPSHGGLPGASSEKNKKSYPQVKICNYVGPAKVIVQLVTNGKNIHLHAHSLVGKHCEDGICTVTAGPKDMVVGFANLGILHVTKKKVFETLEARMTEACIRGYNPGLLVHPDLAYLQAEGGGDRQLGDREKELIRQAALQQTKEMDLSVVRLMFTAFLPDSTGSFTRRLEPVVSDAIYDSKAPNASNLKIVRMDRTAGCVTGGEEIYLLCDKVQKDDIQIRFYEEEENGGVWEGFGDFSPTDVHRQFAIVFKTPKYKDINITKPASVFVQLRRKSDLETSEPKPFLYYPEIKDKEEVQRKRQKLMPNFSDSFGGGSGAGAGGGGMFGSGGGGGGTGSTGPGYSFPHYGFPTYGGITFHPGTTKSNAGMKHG
T1 sequence (Q04206 whole entry): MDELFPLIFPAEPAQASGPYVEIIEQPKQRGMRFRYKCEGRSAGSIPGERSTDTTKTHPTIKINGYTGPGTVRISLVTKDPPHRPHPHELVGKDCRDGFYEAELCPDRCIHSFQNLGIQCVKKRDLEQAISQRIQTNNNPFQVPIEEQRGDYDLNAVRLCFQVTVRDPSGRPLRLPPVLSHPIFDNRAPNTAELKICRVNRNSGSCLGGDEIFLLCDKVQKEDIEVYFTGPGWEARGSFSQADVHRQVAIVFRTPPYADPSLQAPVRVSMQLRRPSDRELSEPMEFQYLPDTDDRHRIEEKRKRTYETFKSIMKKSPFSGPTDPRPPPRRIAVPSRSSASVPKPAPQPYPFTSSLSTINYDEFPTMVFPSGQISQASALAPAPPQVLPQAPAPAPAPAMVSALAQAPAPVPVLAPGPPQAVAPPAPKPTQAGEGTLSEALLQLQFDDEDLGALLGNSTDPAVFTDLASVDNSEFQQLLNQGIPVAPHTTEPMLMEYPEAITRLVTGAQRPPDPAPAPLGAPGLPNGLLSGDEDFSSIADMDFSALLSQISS

Cc1ccc(S(=O)(=O)N[C@@H](Cc2ccccc2)C(=O)CCl)cc1 [TPCK]
TNFα-induced NFκB activity (TNFα-treated cells): completely blocks
basal NFκB activity (control cells): completely blocks
